Measured values from patent publication US6737383B1, “Herbicidal oxadiazolidines” (priority 1999, dated 2004).

Legend:
[1] = tested on: blackgrass; assay: Test B pre/postemergence blackgrass; type: in vivo, Alopecurus myosuroides
Outline: (§1)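 Test chemicals in a non-phytotoxic solvent mixture with surfactant were sprayed preemergence onto planted seeds and postemergence onto plants 2 to 18 cm tall (1- to 4-leaf stage). After twelve to sixteen days in a greenhouse, injury was visually rated against untreated controls from 0 (no effect) to 10 (complete control).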

[2] = tested on: bedstraw; assay: Test B pre/postemergence bedstraw; type: in vivo, Galium aparine
Outline: as §1

[3] = tested on: surinam grass; assay: Test B pre/postemergence surinam grass; type: in vivo, Brachiaria decumbens
Outline: as §1

[4] = tested on: smallflower flatsedge; assay: Test B flood test smallflower flatsedge; type: in vivo, Cyperus difformis
Outline: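 Plants were grown to the 2-leaf stage before treatment with test chemical, then held in a greenhouse for twelve to sixteen days. Injury was visually rated against untreated controls on a 0–10 scale, where 0 is no effect and 10 is complete control.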

[5] = Postemergence, Rate 125 g/ha, scale 0 to 10, 0 is no effect, 10 is complete control
[6] = Postemergence, Rate 250 g/ha, scale 0 to 10, 0 is no effect, 10 is complete control
[7] = Postemergence, Rate 500 g/ha, scale of 0 to 10 where 0 is no effect and 10 is complete control
[8] = Preemergence, Rate 62 g/ha, scale 0 to 10 (0 no effect, 10 complete control)
[9] = Preemergence, Rate 125 g/ha, scale of 0 to 10 where 0 is no effect and 10 is complete control
[10] = Preemergence, Rate 250 g/ha, scale of 0 to 10 where 0 is no effect and 10 is complete control
[11] = Preemergence, Rate 500 g/ha, scale 0 to 10, 0 is no effect, 10 is complete control
[12] = Rate 62 g/ha, Postemergence, scale of 0 to 10 where 0 is no effect and 10 is complete control
[13] = Postemergence, Rate 62 g/ha, scale 0 to 10, 0 is no effect, 10 is complete control
[14] = Postemergence, Rate 250 g/ha, scale 0 to 10, 0 no effect, 10 complete control
[15] = Preemergence, Rate 125 g/ha, scale 0 to 10 (0 no effect, 10 complete control)
[16] = Preemergence, Rate 500 g/ha, scale 0 (no effect) to 10 (complete control)
[17] = Rate 500 g/ha, Postemergence, scale 0 to 10, 0 no effect, 10 complete control
[18] = Rate 125 g/ha, Postemergence, scale 0 to 10, 0 no effect, 10 complete control
[19] = Rate 500 g/ha, Postemergence, scale of 0 to 10 where 0 is no effect and 10 is complete control
[20] = Rate 500 g/ha, listed under Postemergence (flood test species), scale 0 to 10, 0 no effect, 10 complete control

C=CC[Si](C)(C)Cn1c(=O)on(C(=O)N(c2ccc(Cl)cc2)C(C)C)c1=O [Compound 414]
Plant response rating, Blackgrass [1, 5]: 2
Plant response rating, Blackgrass [1, 6]: 5
Blackgrass plant response rating [1, 7]: 7
Plant response rating, Blackgrass [1, 8]: 0
Plant response rating, Blackgrass [1, 9]: 0
Blackgrass plant response rating [1, 10]: 3
Blackgrass plant response rating [1, 11]: 10
Blackgrass plant response rating [1, 12]: 0
Plant response rating, Bedstraw [2, 8]: 0
Plant response rating, Bedstraw [2, 9]: 0
Bedstraw plant response rating [2, 10]: 0
Bedstraw plant response rating [2, 11]: 0
Plant response rating, B. signalgrass [3, 5]: 0
Plant response rating, B. signalgrass [3, 6]: 1
B. signalgrass plant response rating [3, 7]: 6
Plant response rating, B. signalgrass [3, 8]: 0
Plant response rating, B. signalgrass [3, 9]: 0
B. signalgrass plant response rating [3, 10]: 1
B. signalgrass plant response rating ([3]; Preemergence, Rate 500 g/ha, scale of 0 to 10 where 0 is no effect and 10 is complete control): 5
B. signalgrass plant response rating [3, 12]: 0
Plant response rating, S. Flatsedge (0 to 10 scale, 0 is no effect, 10 is complete control) ([4]; Rate 62 g/ha, flood test species, Pre-emergence, visual evaluation after twelve to sixteen days): 0
S. Flatsedge plant response rating (0 to 10 scale, 0 is no effect, 10 is complete control) ([4]; Rate 125 g/ha, under heading Pre-emergence, flood test species, visual evaluation after twelve to sixteen days): 0
S. Flatsedge plant response rating ([4]; Rate 250 g/ha, Pre-emergence (flood test species), scale 0 to 10, 0 is no effect, 10 is complete control): 0
S. Flatsedge plant response rating ([4]; Rate 500 g/ha, Pre-emergence, flood test species, scale 0 to 10 (0 no effect, 10 complete control)): 0

Cc1nn(C)c(Cl)c1-n1c(=O)on(C(=O)N(c2ccc(F)cc2)C(C)C)c1=O [Compound 95]
Blackgrass plant response rating [1, 13]: 0
Blackgrass plant response rating ([1]; Postemergence, Rate 125 g/ha, scale of 0 to 10 where 0 is no effect and 10 is complete control): 0
Blackgrass plant response rating [1, 14]: 4
Blackgrass plant response rating [1, 8]: 0
Plant response rating, Blackgrass [1, 15]: 2
Plant response rating, Blackgrass [1, 10]: 4
Blackgrass plant response rating [1, 16]: 6
Blackgrass plant response rating [1, 17]: 5
Bedstraw plant response rating [2, 13]: 0
Bedstraw plant response rating [2, 14]: 0
Bedstraw plant response rating [2, 8]: 0
Plant response rating, Bedstraw [2, 15]: 0
Plant response rating, Bedstraw [2, 10]: 0
Bedstraw plant response rating [2, 16]: 0
Bedstraw plant response rating [2, 18]: 0
Bedstraw plant response rating [2, 17]: 2
B. signalgrass plant response rating [3, 13]: 0
B. signalgrass plant response rating [3, 14]: 3
B. signalgrass plant response rating [3, 8]: 0
Plant response rating, B. signalgrass [3, 15]: 0
Plant response rating, B. signalgrass [3, 10]: 3
B. signalgrass plant response rating [3, 16]: 7
B. signalgrass plant response rating [3, 18]: 0
B. signalgrass plant response rating [3, 19]: 5
S. Flatsedge plant response rating ([4]; Postemergence (flood test species), Rate 125 g/ha, scale of 0 to 10 where 0 is no effect and 10 is complete control): 0
S. Flatsedge plant response rating [4, 13]: 0
Plant response rating, S. Flatsedge ([4]; Rate 250 g/ha, Postemergence (flood test), scale 0 to 10, 0 is no effect, 10 is complete control): 0
S. Flatsedge plant response rating [4, 20]: 5

CCN(C(=O)n1oc(=O)n(Cc2cccs2)c1=O)C1CCCCC1 [Compound 82]
Blackgrass plant response rating [1, 13]: 0
Blackgrass plant response rating [1, 14]: 0
Blackgrass plant response rating [1, 8]: 0
Plant response rating, Blackgrass [1, 15]: 0
Plant response rating, Blackgrass [1, 10]: 0
Blackgrass plant response rating [1, 16]: 0
Blackgrass plant response rating [1, 18]: 0
Blackgrass plant response rating [1, 17]: 3
Bedstraw plant response rating [2, 13]: 0
Bedstraw plant response rating [2, 14]: 0
Bedstraw plant response rating [2, 8]: 0
Plant response rating, Bedstraw [2, 15]: 0
Plant response rating, Bedstraw [2, 10]: 0
Bedstraw plant response rating [2, 16]: 0
Bedstraw plant response rating [2, 18]: 0
Bedstraw plant response rating [2, 17]: 1
B. signalgrass plant response rating [3, 13]: 0
B. signalgrass plant response rating [3, 14]: 0
B. signalgrass plant response rating [3, 8]: 0
Plant response rating, B. signalgrass [3, 15]: 0
Plant response rating, B. signalgrass [3, 10]: 0
B. signalgrass plant response rating [3, 16]: 0
B. signalgrass plant response rating [3, 18]: 0
B. signalgrass plant response rating [3, 19]: 0
S. Flatsedge plant response rating [4, 13]: 0
S. Flatsedge plant response rating ([4]; Rate 125 g/ha, Postemergence section (flood test species), scale 0 to 10, 0 no effect, 10 complete control): 0
S. Flatsedge plant response rating [4, 20]: 0
S. Flatsedge plant response rating ([4]; flood test, listed under Postemergence, Rate 250 g/ha, scale 0 to 10, 0 no effect, 10 complete control): 0
